Reference: ChEMBL document CHEMBL5506005, “Biochemical and structural characterization of chlorhexidine as an ATP-assisted inhibitor against type 1 methionyl-tRNA synthetase from Gram-positive bacteria” (Eur J Med Chem, 2024)

Legend:
Methionine--tRNA ligase [1] = target: T1, Methionine--tRNA ligase (Staphylococcus aureus (strain Mu50 / ATCC 700699), UniProt P67578); experiment: Binding affinity to Staphylococcus aureus MetRS expressed in Escherichia coli BL21(DE3) cells assessed as dissociation constant in presence of 1 mM ATP by ITC analysis
Methionine--tRNA ligase [2] = target: T1, Methionine--tRNA ligase; experiment: Binding affinity to Staphylococcus aureus MetRS expressed in Escherichia coli BL21(DE3) cells assessed as dissociation constant in presence of 1 mM ADP by ITC analysis
Methionine--tRNA ligase [3] = target: T1, Methionine--tRNA ligase; experiment: Binding affinity to Staphylococcus aureus MetRS expressed in Escherichia coli BL21(DE3) cells assessed as dissociation constant in presence of 50 uM ATP by ITC analysis
Methionine--tRNA ligase [4] = target: T2, Methionine--tRNA ligase (Enterococcus faecalis, UniProt A0A3N3ZFK4); experiment: Binding affinity to Enterococcus faecalis type 1 MetRS expressed in Escherichia coli BL21(DE3) cells assessed as dissociation constant in presence of 1 mM ATP by ITC analysis
Methionine--tRNA ligase [5] = target: T1, Methionine--tRNA ligase; experiment: Binding affinity to Staphylococcus aureus MetRS expressed in Escherichia coli BL21(DE3) cells assessed as dissociation constant by ITC analysis
Methionine--tRNA ligase [6] = target: T1, Methionine--tRNA ligase; experiment: Inhibition of Staphylococcus aureus MetRS expressed in Escherichia coli BL21(DE3) cells measured after 2.5 hrs in presence of ATP by pre-transfer editing assay
Methionine--tRNA ligase [7] = target: T1, Methionine--tRNA ligase; experiment: Binding affinity to Staphylococcus aureus MetRS expressed in Escherichia coli BL21(DE3) cells assessed as dissociation constant in presence of 500 uM ATP by ITC analysis
Methionine--tRNA ligase [8] = target: T1, Methionine--tRNA ligase; experiment: Binding affinity to Staphylococcus aureus MetRS expressed in Escherichia coli BL21(DE3) cells assessed as dissociation constant in presence of 20 uM ATP by ITC analysis
Methionine--tRNA ligase [9] = target: T2, Methionine--tRNA ligase; experiment: Inhibition of Enterococcus faecalis type 1 MetRS expressed in Escherichia coli BL21(DE3) cells measured after 1.5 hrs in presence of ATP by pre-transfer editing assay
Methionine--tRNA ligase [10] = target: T2, Methionine--tRNA ligase; experiment: Binding affinity to Enterococcus faecalis type 1 MetRS expressed in Escherichia coli BL21(DE3) cells assessed as dissociation constant by ITC analysis
Methionine--tRNA ligase [11] = target: T1, Methionine--tRNA ligase; experiment: Binding affinity to Staphylococcus aureus MetRS expressed in Escherichia coli BL21(DE3) cells assessed as dissociation constant in presence of 1 mM AMP by ITC analysis
Methionine--tRNA ligase [12] = target: T1, Methionine--tRNA ligase; experiment: Binding affinity to Staphylococcus aureus MetRS expressed in Escherichia coli BL21(DE3) cells assessed as dissociation constant in presence of ATP/L-Met by ITC analysis
[13] = target: Methionine--tRNA ligase (Staphylococcus aureus (strain Mu50 / ATCC 700699)) (UniProt P67578); experiment: Binding affinity to Staphylococcus aureus MetRS expressed in Escherichia coli BL21(DE3) cells assessed as change in melting temperature at 100 uM incubated for 10 mins followed by heat treatment by SYPRO orange dye based TSA (reference value: 53.7 degreeC)
[14] = target: Methionine--tRNA ligase (Staphylococcus aureus (strain Mu50 / ATCC 700699)) (UniProt P67578); experiment: Binding affinity to Staphylococcus aureus MetRS expressed in Escherichia coli BL21(DE3) cells assessed as change in melting temperature at 100 uM incubated for 10 mins followed by heat treatment in presence of 2 mM ATP by SYPRO orange dye based TSA (reference value: 56.4 degreeC)
[15] = target: Methionine--tRNA ligase (Staphylococcus aureus (strain Mu50 / ATCC 700699)) (UniProt P67578); experiment: Inhibition of Staphylococcus aureus MetRS expressed in Escherichia coli BL21(DE3) cells at 100 uM measured after 2.5 hrs in presence of ATP by pre-transfer editing assay relative to control

T2 sequence (A0A3N3ZFK4 whole entry): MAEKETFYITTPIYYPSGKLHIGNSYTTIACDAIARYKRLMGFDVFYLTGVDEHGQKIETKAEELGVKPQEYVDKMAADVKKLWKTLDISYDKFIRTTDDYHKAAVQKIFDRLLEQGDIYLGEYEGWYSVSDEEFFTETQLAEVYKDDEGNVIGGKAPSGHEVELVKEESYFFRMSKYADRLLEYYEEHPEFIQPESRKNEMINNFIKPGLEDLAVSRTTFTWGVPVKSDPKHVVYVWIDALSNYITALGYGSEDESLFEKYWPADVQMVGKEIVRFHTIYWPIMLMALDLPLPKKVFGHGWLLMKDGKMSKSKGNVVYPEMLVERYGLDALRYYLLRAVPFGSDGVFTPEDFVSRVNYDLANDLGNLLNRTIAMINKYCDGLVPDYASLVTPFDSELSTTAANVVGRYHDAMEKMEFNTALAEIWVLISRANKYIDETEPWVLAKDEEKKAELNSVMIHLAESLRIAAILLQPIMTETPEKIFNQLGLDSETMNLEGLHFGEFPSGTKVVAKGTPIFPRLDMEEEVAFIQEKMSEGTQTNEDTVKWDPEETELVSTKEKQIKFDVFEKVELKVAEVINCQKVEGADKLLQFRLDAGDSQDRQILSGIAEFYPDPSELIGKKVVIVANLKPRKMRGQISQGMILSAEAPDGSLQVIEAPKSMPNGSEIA
Sequence of Methionine--tRNA ligase (Staphylococcus aureus (strain Mu50 / ATCC 700699)) (P67578 whole entry): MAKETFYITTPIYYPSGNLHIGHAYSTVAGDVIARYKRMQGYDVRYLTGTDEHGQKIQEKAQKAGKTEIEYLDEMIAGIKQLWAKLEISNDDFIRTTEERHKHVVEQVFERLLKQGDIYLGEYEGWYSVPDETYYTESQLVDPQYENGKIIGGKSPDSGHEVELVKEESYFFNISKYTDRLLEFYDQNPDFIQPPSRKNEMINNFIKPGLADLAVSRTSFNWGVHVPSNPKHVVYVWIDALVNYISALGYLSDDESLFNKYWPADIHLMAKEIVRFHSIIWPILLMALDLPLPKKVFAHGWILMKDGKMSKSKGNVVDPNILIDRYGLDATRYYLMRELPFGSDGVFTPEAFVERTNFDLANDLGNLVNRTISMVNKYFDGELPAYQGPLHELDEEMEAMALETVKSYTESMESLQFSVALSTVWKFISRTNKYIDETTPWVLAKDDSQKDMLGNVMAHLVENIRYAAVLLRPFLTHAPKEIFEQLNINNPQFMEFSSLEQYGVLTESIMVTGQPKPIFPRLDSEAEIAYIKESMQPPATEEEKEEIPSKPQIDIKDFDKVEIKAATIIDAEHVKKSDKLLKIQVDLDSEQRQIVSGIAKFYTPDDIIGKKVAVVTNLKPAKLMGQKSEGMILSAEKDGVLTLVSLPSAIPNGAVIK
T1 sequence (P67578 whole entry): as above

## [H]/N=C(\N/C(=N/[H])NCCCCCCNC(=N)NC(=N)Nc1ccc(Cl)cc1)Nc1ccc(Cl)cc1 [CHLORHEXIDINE]
Methionine--tRNA ligase [1]
  Kd: 450 nM
Methionine--tRNA ligase [2]
  Kd: 1900 nM
Methionine--tRNA ligase [3]
  Kd: 1210 nM
Methionine--tRNA ligase [4]
  Kd: 300 nM
Methionine--tRNA ligase [5]
  Kd: 10200 nM
Methionine--tRNA ligase [6]
  IC50: 30800 nM
Methionine--tRNA ligase [7]
  Kd: 593 nM
Methionine--tRNA ligase [8]
  Kd: 3100 nM
Methionine--tRNA ligase [9]
  IC50: 8500 nM
Methionine--tRNA ligase [10]
  Kd: 5040 nM
Methionine--tRNA ligase [11]
  Kd: 6 nM
Methionine--tRNA ligase [12]
  Kd: 4190 nM

## VITAMIN E
[13]
  ΔTm: 1.2 °C
[14]
  ΔTm: 1 °C
[15]
  inhibition: < 20%
